Reference: patent US7858621B2 (Amorepacific Corporation, priority 2006, dated 2010)

target: T1, vanilloid receptor (Rattus norvegicus, UniProt O35433); assay: 45Ca influx test in cultured neonatal rat DRG neurons, inhibition of capsaicin response; assay type: cell-based; conditions: neonatal rat DRG neurons, capsaicin 0.5 μM, 45Ca influx; read-out: Antagonist Calcium Uptake Test (IC50)
T1 construct: DRG nerve cells from the primary culture of 2 days were equilibrated; endogenous in cells; host or cells: primary culture of dorsal root ganglion neurons from neonatal SD rats
Summary of the method: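 45Ca influx measured by scintillation counting of SDS-eluted neurons after 10 min at room temperature with test compound, 0.5 μM capsaicin (final) and 10 μCi/ml 45Ca in Ca/Mg-free HEPES-HBSS pH 7.4. Cells: primary DRG neurons from newborn SD rats, cultured 2 days with NGF and Ara-C.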

T1 sequence (O35433 whole entry): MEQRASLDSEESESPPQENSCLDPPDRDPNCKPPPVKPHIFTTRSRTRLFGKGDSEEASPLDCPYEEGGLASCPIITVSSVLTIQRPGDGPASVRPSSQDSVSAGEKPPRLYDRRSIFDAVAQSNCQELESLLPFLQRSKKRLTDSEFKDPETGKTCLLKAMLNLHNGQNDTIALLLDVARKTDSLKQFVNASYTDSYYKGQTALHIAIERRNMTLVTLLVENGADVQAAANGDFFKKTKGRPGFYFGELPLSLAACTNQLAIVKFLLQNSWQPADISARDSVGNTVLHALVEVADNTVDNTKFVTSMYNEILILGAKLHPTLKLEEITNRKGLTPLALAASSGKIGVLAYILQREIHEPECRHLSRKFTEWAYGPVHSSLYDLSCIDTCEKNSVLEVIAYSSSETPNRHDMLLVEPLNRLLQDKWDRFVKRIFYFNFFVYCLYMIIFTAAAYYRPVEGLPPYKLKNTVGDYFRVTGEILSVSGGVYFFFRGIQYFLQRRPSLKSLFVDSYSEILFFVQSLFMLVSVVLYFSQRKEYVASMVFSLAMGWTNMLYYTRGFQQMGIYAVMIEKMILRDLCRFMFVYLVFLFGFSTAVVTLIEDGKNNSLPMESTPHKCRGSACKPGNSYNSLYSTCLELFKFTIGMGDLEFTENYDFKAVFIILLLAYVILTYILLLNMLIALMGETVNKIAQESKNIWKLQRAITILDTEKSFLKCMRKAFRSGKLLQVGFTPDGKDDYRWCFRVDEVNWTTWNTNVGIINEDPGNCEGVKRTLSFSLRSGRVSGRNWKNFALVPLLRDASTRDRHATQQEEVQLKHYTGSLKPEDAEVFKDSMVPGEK

Row | SMILES | IC50 [nM]
1 | C=Cc1cc(CNC(=O)/C=C/c2ccc(C(F)(F)F)nc2Oc2ccccc2)cc(F)c1NS(C)(=O)=O [Example 133, N-(3-Fluoro-4-methanesulfonylamino-5-vinyl-benzyl)-3-(2-phenoxy-6-trifluoromethyl-pyridin-3-yl)-acrylamide] | 280
2 | C#Cc1cc(CNC(=O)/C=C/c2ccc(C(F)(F)F)nc2Oc2cccnc2)cc(F)c1NS(C)(=O)=O [Example 134, N-(3-Ethynyl-5-fluoro-4-methanesulfonylamino-benzyl)-3-[2-(pyridin-3-yloxy)-6-trifluoromethyl-pyridin-3-yl]-acrylamide] | 2600
3 | C#Cc1cc(CNC(=O)/C=C/c2ccc(C(F)(F)F)nc2-c2ccc(F)nc2)cc(F)c1NS(C)(=O)=O [Example 135] | 2300
4 | CS(=O)(=O)Nc1c(F)cc(CNC(=O)/C=C/c2ccc(C(F)(F)F)nc2-c2cccc(F)c2)cc1C#N [Example 136, N-(3-Cyano-5-fluoro-4-methanesulfonylamino-benzyl)-3-[2-(3-fluoro-phenyl)-6-trifluoromethyl-pyridin-3-yl]-acrylamide] | 900
5 | C#Cc1cc(CNC(=O)/C=C/c2ccc(C(F)(F)F)nc2Sc2ccccc2)cc(F)c1NS(C)(=O)=O [Example 139, N-(3-Ethynyl-5-fluoro-4-methanesulfonylamino-benzyl)-3-(2-phenylthio-6-trifluoromethyl-pyridin-3-yl)-acrylamide] | 340
6 | CS(=O)(=O)Nc1ccc(CNC(=O)/C=C/c2ccc(C(F)(F)F)nc2Sc2ccccc2)cc1F [Example 140, N-(3-fluoro-4-methanesulfonylamino-benzyl)-3-(2-phenylthio-6-trifluoromethyl-pyridin-3-yl)-acrylamide] | 9700
7 | CS(=O)(=O)Nc1ccc(CNC(=O)/C=C/c2ccc(C(F)(F)F)nc2CCc2ccccc2)cc1F [Example 141, N-(3-Fluoro-4-methanesulfonylamino-benzyl)-3-(2-phenethyl-6-trifluoromethyl-pyridin-3-yl)-acrylamide] | 180
8 | C#Cc1cc(CNC(=O)/C=C/c2ccc(C(F)(F)F)nc2CCc2ccccc2)cc(F)c1NS(C)(=O)=O [Example 142, N-(3-Ethynyl-5-fluoro-4-methanesulfonylamino-benzyl)-3-(2-phenethyl-6-trifluoromethyl-pyridin-3-yl)-acrylamide] | 35
9 | CCCCc1nc(C(F)(F)F)ccc1/C=C/C(=O)NCc1ccc(NS(C)(=O)=O)c(F)c1 [Example 143, 3-(2-Butyl-6-trifluoromethyl-pyridin-3-yl)-N-(3-fluoro-4-methanesulfonylamino-benzyl)-acrylamide] | 200
10 | C#Cc1cc(CNC(=O)/C=C/c2ccc(C(F)(F)F)nc2CCCC)cc(F)c1NS(C)(=O)=O [Example 144, 3-(2-Butyl-6-trifluoromethyl-pyridin-3-yl)-N-(3-ethynyl-5-fluoro-4-methanesulfonylamino-benzyl)-acrylamide] | 33
11 | C#Cc1cc(CNC(=O)C=Cc2ccc(C(F)(F)F)nc2C#C)cc(F)c1NS(C)(=O)=O [Example 145, N-(3-Ethynyl-5-fluoro-4-methanesulfonylamino-benzyl)-3-(2-ethynyl-6-trifluoromethyl-pyridin-3-yl)-acrylamide] | 1900
12 | CC(C)Cc1nc(C(F)(F)F)ccc1/C=C/C(=O)NCc1ccc(NS(C)(=O)=O)c(F)c1 [Example 147, N-(3-Fluoro-4-methanesulfonylamino-benzyl)-3-(2-isobutyl-6-trifluoromethyl-pyridin-3-yl)-acrylamide] | 220
13 | C#Cc1cc(CNC(=O)/C=C/c2ccc(C(F)(F)F)nc2CC(C)C)cc(F)c1NS(C)(=O)=O [Example 148, N-(3-Ethynyl-5-fluoro-4-methanesulfonylamino-benzyl)-3-(2-isobutyl-6-trifluoromethyl-pyridin-3-yl)-acrylamide] | 51
14 | C[C@@H](NC(=O)/C=C/c1ccc(C(F)(F)F)nc1Nc1ccccc1)c1ccc(NS(C)(=O)=O)c(F)c1 [Example 149, (R)—N-[1-(3-Fluoro-4-methanesulfonylamino-phenyl)-ethyl]-3-(2-phenylamino-6-trifluoromethyl-pyridin-3-yl)-acrylamide] | 250
15 | C#Cc1cc(CNC(=O)/C=C/c2ccc(C(F)(F)F)nc2CC)cc(F)c1NS(C)(=O)=O [Example 150, 3-(2-Ethyl-6-trifluoromethyl-pyridin-3-yl)-N-(3-ethynyl-5-fluoro-4-methanesulfonylamino-benzyl)-acrylamide] | 210
16 | CCC(C)Cc1nc(C(F)(F)F)ccc1/C=C/C(=O)NCc1ccc(NS(C)(=O)=O)c(F)c1 (centres unmarked) [Example 151, N-(3-Fluoro-4-methanesulfonylamino-benzyl)-3-[2-(2-methyl-butyl)-6-trifluoromethyl-pyridin-3-yl]-acrylamide] | 150

Row | SMILES | IC50 [nM]
17 | C#Cc1cc(CNC(=O)/C=C/c2ccc(C(F)(F)F)nc2CC(C)CC)cc(F)c1NS(C)(=O)=O (centres unmarked) [Example 152, N-(3-Ethynyl-5-fluoro-4-methanesulfonylamino-benzyl)-3-[2-(2-methyl-butyl)-6-trifluoromethyl-pyridin-3-yl]-acrylamide] | 43
18 | C#Cc1cc(CNC(=O)/C=C/c2ccc(C(F)(F)F)nc2C#CCOC)cc(F)c1NS(C)(=O)=O [Example 153, N-(3-Ethynyl-5-fluoro-4-methanesulfonylamino-benzyl)-3-[2-(3-methoxy-prop-1-ynyl)-6-trifluoromethyl-pyridin-3-yl]-acrylamide] | 1100
19 | COCC#Cc1nc(C(F)(F)F)ccc1/C=C/C(=O)NCc1ccc(NS(C)(=O)=O)c(F)c1 [Example 154, N-(3-Fluoro-4-methanesulfonylamino-benzyl)-3-[2-(3-methoxy-prop-1-ynyl)-6-trifluoromethyl-pyridin-3-yl]-acrylamide] | 2100
20 | C#Cc1cc(CNC(=O)/C=C/c2ccc(C(F)(F)F)nc2CCCOC)cc(F)c1NS(C)(=O)=O [Example 155, N-(3-Ethynyl-5-fluoro-4-methanesulfonylamino-benzyl)-3-[2-(3-methoxy-propyl)-6-trifluoromethyl-pyridin-3-yl]-acrylamide] | 780
21 | COCCCc1nc(C(F)(F)F)ccc1/C=C/C(=O)NCc1ccc(NS(C)(=O)=O)c(F)c1 [Example 156, N-(3-Fluoro-4-methanesulfonylamino-benzyl)-3-[2-(3-methoxy-propyl)-6-trifluoromethyl-pyridin-3-yl]-acrylamide] | 2200
22 | C#Cc1cc(CNC(=O)/C=C/c2ccc(C(F)(F)F)nc2/C=C/c2ccccc2)cc(F)c1NS(C)(=O)=O [Example 157, N-(3-Ethynyl-5-fluoro-4-methanesulfonylamino-benzyl)-3-(2-styryl-6-trifluoromethyl-pyridin-3-yl)-acrylamide] | 450
23 | CCCN(C)c1nc(C(F)(F)F)ccc1/C=C/C(=O)NCc1ccc(NS(C)(=O)=O)c(F)c1 [Example 158, N-(3-Fluoro-4-methanesulfonylamino-benzyl)-3-[2-(N-methyl-N-propyl-amino)-6-trifluoromethyl-pyridin-3-yl]-acrylamide] | 480
24 | C#Cc1cc(CNC(=O)/C=C/c2ccc(C(F)(F)F)nc2N(C)CCC)cc(F)c1NS(C)(=O)=O [Example 159, N-(3-Ethynyl-5-fluoro-4-methanesulfonylamino-benzyl)-3-[2-(N-methyl-N-propyl-amino)-6-trifluoromethyl-pyridin-3-yl]-acrylamide] | 270
25 | CCOCc1nc(C(F)(F)F)ccc1/C=C/C(=O)NCc1ccc(NS(C)(=O)=O)c(F)c1 [Example 160, N-(3-Fluoro-4-methanesulfonylamino-benzyl)-3-(2-ethoxymethyl-6-trifluoromethyl-pyridin-3-yl)-acrylamide] | 2400
26 | C#Cc1cc(CNC(=O)/C=C/c2ccc(C(F)(F)F)nc2COCC)cc(F)c1NS(C)(=O)=O [Example 161, N-(3-Ethynyl-5-fluoro-4-methanesulfonylamino-benzyl)-3-(2-ethoxymethyl-6-trifluoromethyl-pyridin-3-yl)-acrylamide] | 550
27 | CCC(C)Oc1nc(C(F)(F)F)ccc1/C=C/C(=O)NCc1ccc(NS(C)(=O)=O)c(C)c1 (centres unmarked) [Example 162, 3-(2-sec-Butoxy-6-trifluoromethyl-pyridin-3-yl)-N-(4-methanesulfonylamino-3-methyl-benzyl)-acrylamide] | 120
28 | CC(C)Cc1nc(C(F)(F)F)ccc1/C=C/C(=O)NCc1cc(F)c(NS(C)(=O)=O)c(C#N)c1 [Example 163, N-(3-Cyano-5-fluoro-4-methanesulfonylamino-benzyl)-3-(2-isobutyl-6-trifluoromethyl-pyridin-3-yl)-acrylamide] | 150
29 | Cc1cc(CNC(=O)/C=C/c2ccc(C(F)(F)F)nc2CC(C)C)cc(F)c1NS(C)(=O)=O [Example 164, N-(3-Fluoro-4-methanesulfonylamino-5-methyl-benzyl)-3-(2-isobutyl-6-trifluoromethyl-pyridin-3-yl)-acrylamide] | 83
30 | C[C@@H](NC(=O)/C=C/c1ccc(C(F)(F)F)nc1N(C)c1ccccc1)c1ccc(NS(C)(=O)=O)c(F)c1 [Example 165, (R)—N-[1-(3-Fluoro-4-methanesulfonylamino-phenyl)-ethyl]-3-[2-(methyl-phenylamino)-6-trifluoromethyl-pyridin-3-yl]-acrylamide] | 160
31 | C#Cc1cc(CNC(=O)/C=C/c2ccc(C(F)(F)F)nc2N(C)c2ccccc2)cc(F)c1NS(C)(=O)=O [Example 166, N-(3-Ethynyl-5-fluoro-4-methanesulfonylamino-benzyl)-3-[2-(methyl-phenylamino)-6-trifluoromethyl-pyridin-3-yl]-acrylamide] | 69
32 | Cc1cc(CNC(=O)/C=C/c2ccc(C(F)(F)F)nc2N(C)c2ccccc2)ccc1NS(C)(=O)=O [Example 167, N-(4-methanesulfonylamino-3-methyl-benzyl)-3-[2-(methyl-phenylamino)-6-trifluoromethyl-pyridin-3-yl]-acrylamide] | 120
